Biological target: T1, human Fatty Acid Synthase (Homo sapiens, UniProt P49327)
T1 construct: made in house
Experiment: Human FAS enzyme assay (decrease in NADPH fluorescence)
Assay type: biochemical
Settings: % inhibition at a concentration of 100 micromolar
Excerpt: The compounds of the present invention are Fatty Acid Synthase inhibitors. […] Human and Rat FAS Enzyme Assay.
Fatty acid synthase is an enzyme complex that harbours seven enzymatic activities catalysing the reductive synthesis of long chain fatty acids from acetyl CoA and malonyl CoA to palmitate. When acetyl CoA and malonyl CoA are forming palmitate NADPH is consumed forming NADP. Since NADPH is fluorescent but not NADP the reaction can be measured by analysing the decrease in fluorescence.
Compounds were added to a black 384 well plate (Matrix) in a volume of 5 μl consisting of 20% DMSO and 80% Tris buffer pH 7.5, at a top concentration of 1 mM. NADPH, 30 μl of 166.6 μM, formulated in assay buffer (0.1M Tris ph7.5, 0.1 mM EDTA, 1 mM glutathione, 0.05% BSA), was then added to all of the wells of the plate. Fatty acid synthase Human or rat enzyme (0.4 μg, produced in house), dissolved in 20 mM Tris/HCl pH 7.5, 5 mM BOG, 1 mM TCEP, 10% glycerol, 1 mM EDTA, 150 mM NaCl, was then added to the plate in a volume of […]. Enzyme was added to all but the last two columns of the plate, to which, 10 μl of assay buffer was added (0.1M Tris ph7.5, 0.1 mM EDTA, 1 mM glutathione, 0.05% BSA) to provide a no enzyme assay control. Following a 15-minute incubation period, at room temperature, the plates were read on an Envision plate reader using 340 nm excitation and 460 nm emission filters. This served as a time zero background read. Substrates (an equal mix of both malonyl and acetyl CoA) were then added to the plates in a total volume of 5 μl. The concentrations of malonyl and acetyl CoA in the mixture were 500 μM and 150 μM respectively. Both were prepared as 10 mM stock solutions in distilled water and were subsequently diluted to working concentrations in assay buffer. Plates were then incubated for a further 60 minutes, at room temperature, before being read again on the Envision reader using the same parameters as previously used. The data was analysed by subtracting the background time zero data from that generated following the final 60 minute incubate and the percent inhibition compared to the maximum and minimum assay controls was determined. Sigmoid curves were fitted using Origin 7.5 Client software and IC50 values were determined.

T1 sequence (P49327 whole entry): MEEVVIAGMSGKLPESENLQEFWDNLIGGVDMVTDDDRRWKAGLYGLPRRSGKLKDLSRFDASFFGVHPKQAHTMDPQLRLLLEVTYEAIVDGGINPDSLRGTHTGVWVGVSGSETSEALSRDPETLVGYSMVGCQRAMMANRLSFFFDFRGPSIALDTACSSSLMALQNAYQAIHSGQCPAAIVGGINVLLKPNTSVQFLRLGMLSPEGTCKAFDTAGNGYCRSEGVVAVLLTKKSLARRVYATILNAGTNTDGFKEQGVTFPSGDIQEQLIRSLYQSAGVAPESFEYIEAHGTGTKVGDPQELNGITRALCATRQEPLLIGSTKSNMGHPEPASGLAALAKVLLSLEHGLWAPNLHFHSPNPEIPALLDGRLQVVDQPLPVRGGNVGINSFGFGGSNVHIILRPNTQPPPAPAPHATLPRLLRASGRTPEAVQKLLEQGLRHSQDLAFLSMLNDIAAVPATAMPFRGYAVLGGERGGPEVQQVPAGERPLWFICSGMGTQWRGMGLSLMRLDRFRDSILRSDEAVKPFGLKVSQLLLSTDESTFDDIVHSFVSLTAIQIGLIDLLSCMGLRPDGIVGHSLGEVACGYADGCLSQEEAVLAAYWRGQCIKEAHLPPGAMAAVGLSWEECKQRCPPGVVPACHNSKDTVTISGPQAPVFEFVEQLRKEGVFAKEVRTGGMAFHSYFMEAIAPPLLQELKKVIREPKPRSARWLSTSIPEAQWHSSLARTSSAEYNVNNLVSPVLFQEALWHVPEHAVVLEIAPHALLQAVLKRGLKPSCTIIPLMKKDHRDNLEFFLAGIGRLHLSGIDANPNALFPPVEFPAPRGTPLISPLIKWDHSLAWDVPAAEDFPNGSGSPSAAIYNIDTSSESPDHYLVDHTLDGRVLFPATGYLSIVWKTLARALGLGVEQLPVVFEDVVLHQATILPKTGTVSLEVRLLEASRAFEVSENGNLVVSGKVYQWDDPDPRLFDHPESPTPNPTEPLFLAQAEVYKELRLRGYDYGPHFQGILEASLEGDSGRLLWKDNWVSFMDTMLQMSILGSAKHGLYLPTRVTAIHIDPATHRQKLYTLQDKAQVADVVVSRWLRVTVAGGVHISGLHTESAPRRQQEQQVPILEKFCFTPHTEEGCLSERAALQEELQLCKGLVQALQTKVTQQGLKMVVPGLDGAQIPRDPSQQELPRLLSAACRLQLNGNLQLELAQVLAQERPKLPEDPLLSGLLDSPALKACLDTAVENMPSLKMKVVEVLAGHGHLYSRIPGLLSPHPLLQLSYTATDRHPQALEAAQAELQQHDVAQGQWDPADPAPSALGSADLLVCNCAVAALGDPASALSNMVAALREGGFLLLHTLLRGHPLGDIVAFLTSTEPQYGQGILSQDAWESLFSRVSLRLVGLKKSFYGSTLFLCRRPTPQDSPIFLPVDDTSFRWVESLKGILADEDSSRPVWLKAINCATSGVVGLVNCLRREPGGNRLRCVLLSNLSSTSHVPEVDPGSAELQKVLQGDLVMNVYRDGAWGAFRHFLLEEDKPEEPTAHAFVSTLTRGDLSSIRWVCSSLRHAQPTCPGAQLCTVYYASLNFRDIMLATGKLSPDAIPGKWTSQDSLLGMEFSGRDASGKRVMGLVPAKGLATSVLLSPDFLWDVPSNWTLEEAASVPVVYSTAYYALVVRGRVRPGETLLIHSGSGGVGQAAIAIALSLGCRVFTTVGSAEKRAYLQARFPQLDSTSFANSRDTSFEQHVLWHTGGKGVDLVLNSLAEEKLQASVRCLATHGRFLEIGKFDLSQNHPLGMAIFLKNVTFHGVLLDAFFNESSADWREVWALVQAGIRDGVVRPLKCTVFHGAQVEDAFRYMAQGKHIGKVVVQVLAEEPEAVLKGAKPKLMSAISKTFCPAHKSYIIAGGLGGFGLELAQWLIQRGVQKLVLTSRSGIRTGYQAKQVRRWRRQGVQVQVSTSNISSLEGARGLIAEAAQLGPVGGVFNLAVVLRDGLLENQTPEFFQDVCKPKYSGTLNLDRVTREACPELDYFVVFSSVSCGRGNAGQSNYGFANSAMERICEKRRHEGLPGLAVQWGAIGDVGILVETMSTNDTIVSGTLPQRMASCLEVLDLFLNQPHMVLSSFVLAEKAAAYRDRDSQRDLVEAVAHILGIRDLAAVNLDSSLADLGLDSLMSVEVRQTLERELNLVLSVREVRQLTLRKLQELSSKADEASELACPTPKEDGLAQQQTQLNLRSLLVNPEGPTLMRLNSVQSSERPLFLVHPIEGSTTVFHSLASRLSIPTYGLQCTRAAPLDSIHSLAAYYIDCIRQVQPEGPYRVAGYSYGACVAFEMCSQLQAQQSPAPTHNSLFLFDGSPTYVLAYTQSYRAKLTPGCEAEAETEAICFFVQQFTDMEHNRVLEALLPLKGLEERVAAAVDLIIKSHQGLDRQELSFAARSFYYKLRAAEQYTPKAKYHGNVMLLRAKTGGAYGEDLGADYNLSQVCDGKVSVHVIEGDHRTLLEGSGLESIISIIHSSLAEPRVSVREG

Structure (SMILES)	inhibition at 100 µM
Cc1ccc(C(=O)N2CCC(c3ccc(C#N)cc3)CC2)cc1NS(=O)(=O)CC1CCCCC1 [Example 15, N-[5-[4-(4-cyanophenyl)piperidine-1-carbonyl]-2-methyl-phenyl]-1-cyclohexyl-methanesulfonamide]	93%
Cc1ccc(C(=O)N2CCC(c3ccc(C#N)cc3)CC2)cc1NS(=O)(=O)C1CCCCC1 [Example 17, N-[5-[4-(4-cyanophenyl)piperidine-1-carbonyl]-2-methyl-phenyl]cyclohexanesulfonamide]	94%
Cc1ccc(C(=O)N2CCC(c3ccc(C#N)cc3)CC2)cc1NS(=O)(=O)c1cccc(C#N)c1 [Example 21, 3-cyano-N-[5-[4-(4-cyanophenyl)piperidine-1-carbonyl]-2-methyl-phenyl]benzenesulfonamide]	90%
CC(=O)Nc1ccc(S(=O)(=O)Nc2cc(C(=O)N3CCC(c4ccc(C#N)cc4)CC3)ccc2C)cc1 [Example 22, N-[4-[[5-[4-(4-cyanophenyl)piperidine-1-carbonyl]-2-methyl-phenyl]sulfamoyl]phenyl]acetamide]	95%
CCCCOc1ccc(S(=O)(=O)Nc2cc(C(=O)N3CCC(c4ccc(C#N)cc4)CC3)ccc2C)cc1 [Example 24, 4-butoxy-N-[5-[4-(4-cyanophenyl)piperidine-1-carbonyl]-2-methyl-phenyl]benzenesulfonamide]	83%
COc1ccccc1S(=O)(=O)Nc1cc(C(=O)N2CCC(c3ccc(C#N)cc3)CC2)ccc1C [Example 25, N-[5-[4-(4-cyanophenyl)piperidine-1-carbonyl]-2-methyl-phenyl]-2-methoxy-benzenesulfonamide]	87%
Cc1ccc(C(=O)N2CCC(c3ccc(C#N)cc3)CC2)cc1NS(=O)(=O)Cc1cccc(F)c1 [Example 27, N-[5-[4-(4-cyanophenyl)piperidine-1-carbonyl]-2-methyl-phenyl]-1-(3-fluorophenyl)methanesulfonamide]	96%
Cc1cc(C)c(C(=O)N2CCC(c3ccc(C#N)cc3)CC2)cc1NS(=O)(=O)Cc1ccccc1 [Example 29, N-[5-[4-(4-cyanophenyl)piperidine-1-carbonyl]-2,4-dimethyl-phenyl]-1-phenyl-methanesulfonamide]	93%
COc1ccc(NS(=O)(=O)Cc2ccccc2)cc1C(=O)N1CCC(c2ccc(C#N)cc2)CC1 [Example 31, N-[3-[4-(4-cyanophenyl)piperidine-1-carbonyl]-4-methoxy-phenyl]-1-phenyl-methanesulfonamide]	83%
Cc1ccc(NS(=O)(=O)CCCCl)cc1C(=O)N1CCC(c2ccc(C#N)cc2)CC1 [Example 34, 3-chloro-N-[3-[4-(4-cyanophenyl)piperidine-1-carbonyl]-4-methyl-phenyl]propane-1-sulfonamide]	89%
Cc1ccc(NS(=O)(=O)c2ccccc2)cc1C(=O)N1CCC(c2ccc(C#N)cc2)CC1 [Example 35, N-[3-[4-(4-cyanophenyl)piperidine-1-carbonyl]-4-methyl-phenyl]benzenesulfonamide]	89%
Cc1ccc(NS(=O)(=O)C2CC2)cc1C(=O)N1CCC(c2ccc(C#N)cc2)CC1 [Example 40, N-[3-[4-(4-cyanophenyl)piperidine-1-carbonyl]-4-methyl-phenyl]cyclopropanesulfonamide]	89%
Cc1ccc(NS(=O)(=O)CC2CCCCC2)cc1C(=O)N1CCC(c2ccc(C#N)cc2)CC1 [Example 41, N-[3-[4-(4-cyanophenyl)piperidine-1-carbonyl]-4-methyl-phenyl]-1-cyclohexyl-methanesulfonamide]	96%
Cc1ccc(NS(=O)(=O)CC2CCCC2)cc1C(=O)N1CCC(c2ccc(C#N)cc2)CC1 [Example 43, N-[3-[4-(4-cyanophenyl)piperidine-1-carbonyl]-4-methyl-phenyl]-1-cyclopentyl-methanesulfonamide]	93%

The remaining lines, values ahead:

inhibition at 100 µM	Structure (SMILES)
95%	Cc1ccc(C(=O)N2CCC(c3ccc(C#N)cc3)CC2)cc1NS(=O)(=O)CC1CCCC1 [Example 16, N-[5-[4-(4-cyanophenyl)piperidine-1-carbonyl]-2-methyl-phenyl]-1-cyclopentyl-methanesulfonamide]
96%	Cc1ccc(C(=O)N2CCC(c3ccc(C#N)cc3)CC2)cc1NS(=O)(=O)c1ccc(Cl)s1 [Example 19, 5-chloro-N-[5-[4-(4-cyanophenyl)piperidine-1-carbonyl]-2-methyl-phenyl]thiophene-2-sulfonamide]
85%	Cc1ccc(C(=O)N2CCC(c3ccc(C#N)cc3)CC2)cc1NS(=O)(=O)c1ccccc1C#N [Example 20, 2-cyano-N-[5-[4-(4-cyanophenyl)piperidine-1-carbonyl]-2-methyl-phenyl]benzenesulfonamide]
89%	Cc1ccc(C(=O)N2CCC(c3ccc(C#N)cc3)CC2)cc1NS(=O)(=O)c1ccc(C#N)cc1 [Example 23, 4-cyano-N-[5-[4-(4-cyanophenyl)piperidine-1-carbonyl]-2-methyl-phenyl]benzenesulfonamide]
94%	Cc1ccc(C(=O)N2CCC(c3ccc(C#N)cc3)CC2)cc1NS(=O)(=O)Cc1ccccc1F [Example 26, N-[5-[4-(4-cyanophenyl)piperidine-1-carbonyl]-2-methyl-phenyl]-1-(2-fluorophenyl)methanesulfonamide]
93%	Cc1cc(C)c(C(=O)N2CCC(c3ccc(C#N)cc3)CC2)cc1NS(C)(=O)=O [Example 28, N-[5-[4-(4-cyanophenyl)piperidine-1-carbonyl]-2,4-dimethyl-phenyl]methanesulfonamide]
85%	Cc1ccc(NS(=O)(=O)C(C)C)cc1C(=O)N1CCC(c2ccc(C#N)cc2)CC1 [Example 32, N-[3-[4-(4-cyanophenyl)piperidine-1-carbonyl]-4-methyl-phenyl]propane-2-sulfonamide]
91%	CCCS(=O)(=O)Nc1ccc(C)c(C(=O)N2CCC(c3ccc(C#N)cc3)CC2)c1 [Example 33, N-[3-[4-(4-cyanophenyl)piperidine-1-carbonyl]-4-methyl-phenyl]propane-1-sulfonamide]
88%	CCS(=O)(=O)Nc1ccc(C)c(C(=O)N2CCC(c3ccc(C#N)cc3)CC2)c1 [Example 36, N-[3-[4-(4-cyanophenyl)piperidine-1-carbonyl]-4-methyl-phenyl]ethanesulfonamide]
91%	CCCCS(=O)(=O)Nc1ccc(C)c(C(=O)N2CCC(c3ccc(C#N)cc3)CC2)c1 [Example 37, N-[3-[4-(4-cyanophenyl)piperidine-1-carbonyl]-4-methyl-phenyl]butane-1-sulfonamide]
83%	COC(=O)CS(=O)(=O)Nc1ccc(C)c(C(=O)N2CCC(c3ccc(C#N)cc3)CC2)c1 [Example 38, methyl 2-[[3-[4-(4-cyanophenyl)piperidine-1-carbonyl]-4-methyl-phenyl]sulfamoyl]acetate]
80%	Cc1ccc(NS(=O)(=O)c2cnoc2C)cc1C(=O)N1CCC(c2ccc(C#N)cc2)CC1 [Example 39, N-[3-[4-(4-cyanophenyl)piperidine-1-carbonyl]-4-methyl-phenyl]-5-methyl-1,2-oxazole-4-sulfonamide]
90%	Cc1ccc(NS(=O)(=O)C2CCCCC2)cc1C(=O)N1CCC(c2ccc(C#N)cc2)CC1 [Example 42, N-[3-[4-(4-cyanophenyl)piperidine-1-carbonyl]-4-methyl-phenyl]cyclohexanesulfonamide]
